Test results published in patent US20260364080A1, “PYRAZOLO-PYRIMIDINONE COMPOUNDS FOR USE IN METHODS OF INHIBITING WEE1 A KINASE” (Acrivon Therapeutics, Inc., priority 2023, published 2026).

Experiments:
[1] = target: T1, Wee1A kinase (CDK1 Tyr15 phosphorylation in ACHN renal cell carcinoma cells) (Homo sapiens, UniProt P30291); test: High-content imaging of pCdk1 Y15, Wee1A kinase target engagement in ACHN cells; format: cell-based; conditions: 4 h treatment, nuclear positivity for pCdk1 Y15 vs DMSO control, read-out: CDK1 Tyr15 Phosphorylation EC50
T1 construct: pCDK1 Tyr15 immunofluorescence read-out
T1 sequence (P30291 whole entry): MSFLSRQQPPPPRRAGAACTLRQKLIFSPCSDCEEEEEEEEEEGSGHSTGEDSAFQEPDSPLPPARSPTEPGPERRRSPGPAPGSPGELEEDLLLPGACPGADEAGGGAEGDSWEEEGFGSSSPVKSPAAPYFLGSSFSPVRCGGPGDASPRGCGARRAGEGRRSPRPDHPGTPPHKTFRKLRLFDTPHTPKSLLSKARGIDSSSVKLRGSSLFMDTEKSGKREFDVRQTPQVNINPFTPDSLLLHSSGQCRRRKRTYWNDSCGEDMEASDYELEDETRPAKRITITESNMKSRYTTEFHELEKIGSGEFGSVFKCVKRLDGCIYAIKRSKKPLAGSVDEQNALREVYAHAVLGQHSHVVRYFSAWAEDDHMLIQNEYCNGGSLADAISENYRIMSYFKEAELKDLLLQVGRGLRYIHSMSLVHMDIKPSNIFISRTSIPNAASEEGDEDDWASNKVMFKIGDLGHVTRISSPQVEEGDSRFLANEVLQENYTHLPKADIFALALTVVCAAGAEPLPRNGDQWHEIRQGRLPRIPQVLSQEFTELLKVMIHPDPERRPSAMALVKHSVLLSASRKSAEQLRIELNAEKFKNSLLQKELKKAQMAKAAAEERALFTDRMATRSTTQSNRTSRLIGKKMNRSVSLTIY
In short: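 EC50 values come from the per-well fraction of cells with nuclear pCdk1 Y15 staining, normalised to DMSO control, by automated immunofluorescence imaging. Cells were ACHN renal carcinoma, treated 4 h with compound at 7–5,000 nM or 0.3–200 nM.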

[2] = target: T2, recombinant human Wee1A kinase (Homo sapiens, UniProt P30291); test: Wee1A kinase binding assay (LanthaScreen Eu time-resolved FRET); conditions: 30 nM tracer 178, 5 nM Wee1A kinase, 2 nM Eu-labeled antibody; 60 minutes at room temperature; read-out: Wee1A kinase Binding IC50
T2 construct: full length Wee1 kinase was expressed by baculovirus in insect cells; purchased Invitrogen PV3817; host or cells: insect cells (baculovirus)
T2 sequence (P30291 whole entry): as above
In short: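 Full-length, baculovirus-expressed GST-tagged Wee1A (5 nM) was mixed with 2 nM Eu-anti-GST antibody, 30 nM kinase tracer 178 and compound (1% DMSO). Buffer was 50 mM HEPES pH 7.5, 10 mM MgCl2, 1 mM EGTA, 0.01% Brij-35, incubated 60 min at room temperature. TR-FRET 665/615 nm emission ratios from duplicates were curve-fitted.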

ACHN cells = test: Cell Titer Glo viability assay, ACHN cells; format: cell-based; conditions: Homo sapiens, 144 h, absolute EC50
In short: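 Cells grown in MEM with 10% FCS were seeded at 500 (A427), 400 (ACHN) or 250 (DAOY) per well and treated the next day with compound at 17 to 10 000 nM. Viability relative to untreated control was read at 144 h by CellTiter-Glo 2.0.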

[3] = target: T3, Myt1 kinase (recombinant PMYT-1) (Homo sapiens, UniProt Q99640); test: Myt1 kinase binding assay (LanthaScreen Eu Kinase Binding Assay); conditions: 3 nM tracer 178, 2.5 nM PMYT-1, 1 nM Eu-labeled antibody; read-out: Myt1 kinase Binding IC50
T3 construct: full length PMYT-1 was expressed by baculovirus in insect cells; purchased Invitrogen A30984; host or cells: insect cells (baculovirus)
T3 sequence (Q99640 1-499): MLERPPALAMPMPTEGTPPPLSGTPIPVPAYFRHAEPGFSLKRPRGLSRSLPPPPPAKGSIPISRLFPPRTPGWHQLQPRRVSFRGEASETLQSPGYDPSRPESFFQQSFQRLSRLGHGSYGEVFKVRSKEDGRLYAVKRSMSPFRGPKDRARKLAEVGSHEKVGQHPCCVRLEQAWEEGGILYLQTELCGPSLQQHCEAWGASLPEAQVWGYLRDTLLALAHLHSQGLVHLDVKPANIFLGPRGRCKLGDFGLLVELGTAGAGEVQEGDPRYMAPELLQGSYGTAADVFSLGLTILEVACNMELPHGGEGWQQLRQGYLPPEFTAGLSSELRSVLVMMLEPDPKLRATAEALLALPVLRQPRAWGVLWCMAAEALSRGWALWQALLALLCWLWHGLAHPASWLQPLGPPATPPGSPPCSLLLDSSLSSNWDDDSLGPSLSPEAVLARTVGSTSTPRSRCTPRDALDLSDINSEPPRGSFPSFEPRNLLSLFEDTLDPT
In short: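 Compound binding to Myt1 kinase was assessed using the LanthaScreen Eu Kinase Binding Assay. This europium-based binding format was applied to quantify how strongly each compound bound to the Myt1 enzyme, and the binding affinity was reported for each compound as an IC50 value.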

EC50 [1] | IC50 [2] | EC50 (ACHN cells) | IC50 [3] | SMILES
< 0.1 µM | < 0.01 µM | 0.1 to 0.5 µM | 0.1 to 0.5 µM | CCn1c(=O)c2cnc(Nc3cccc(C)c3)nc2n1-c1cccc(OC2CCN(C)CC2)n1 [Compound 289, 2-ethyl-1-[6-(1-methyl-4-piperidyloxy)-2-pyridyl]-6-m-toluidino-1,2-dihydro-3H-1,2,5,7-tetraazainden-3-one]
< 0.1 µM | < 0.01 µM | ≤ 0.1 µM | 0.02 to 0.1 µM | C=CCn1c(=O)c2cnc(Nc3ccc(C#N)cc3)nc2n1-c1cccc(OC2CCN(C)CC2)n1 [Compound 301, p-{2-allyl-1-[6-(1-methyl-4-piperidyloxy)-2-pyridyl]-3-oxo-1,2-dihydro-3H-1,2,5,7-tetraazainden-6-ylamino}benzonitrile]
< 0.1 µM | < 0.01 µM | ≤ 0.1 µM | 0.1 to 0.5 µM | C=CCn1c(=O)c2cnc(Nc3cccc(C)c3)nc2n1-c1cccc(NC2CCN(C)CC2)n1 [Compound 188, 2-allyl-1-[6-(1-methyl-4-piperidylamino)-2-pyridyl]-6-m-toluidino-1,2-dihydro-3H-1,2,5,7-tetraazainden-3-one]
> 1 µM | < 0.01 µM | > 1 µM | 0.02 to 0.1 µM | CCn1c(=O)c2cnc(Nc3ccc4c(c3)ncn4C)nc2n1-c1cccc(OC2CCNCC2)n1 [Compound 318, 2-ethyl-6-((1-methyl-1H-benzo[d]imidazol-5-yl)amino)-1-(6-(piperidin-4-yloxy)pyridin-2-yl)-1,2-dihydro-3H-pyrazolo[3,4-d]pyrimidin-3-one]
< 0.1 µM | < 0.01 µM | 0.1 to 0.5 µM | 0.02 to 0.1 µM | Cn1ccc2cc(Nc3ncc4c(=O)n(C)n(-c5cccc(OC6CCNCC6)n5)c4n3)ccc21 [Compound 336, 2-methyl-6-((1-methyl-1H-indol-5-yl)amino)-1-(6-(piperidin-4-yloxy)pyridin-2-yl)-1,2-dihydro-3H-pyrazolo[3,4-d]pyrimidin-3-one]
< 0.1 µM | < 0.01 µM | 0.1 to 0.5 µM | 0.1 to 0.5 µM | C=CCn1c(=O)c2cnc(Nc3ccc(F)cc3)nc2n1-c1ccnc(NC2CCN(C)CC2)n1 [Compound 312, 2-allyl-6-(p-fluorophenylamino)-1-[2-(1-methyl-4-piperidylamino)-4-pyrimidinyl]-1,2-dihydro-3H-1,2,5,7-tetraazainden-3-one]
< 0.1 µM | < 0.01 µM | ≤ 0.1 µM | 0.02 to 0.1 µM | CCn1c(=O)c2cnc(Nc3ccc4c(c3)ncn4C)nc2n1-c1cccc(OC2CCN(C)CC2)n1 [Compound 235, 2-ethyl-6-((1-methyl-1H-benzo[d]imidazol-5-yl)amino)-1-(6-((1-methylpiperidin-4-yl)oxy)pyridin-2-yl)-1,2-dihydro-3H-pyrazolo[3,4-d]pyrimidin-3-one]
